# Target: T1, PERK (Homo sapiens, UniProt Q9NZJ5)
# T1 sequence (Q9NZJ5 30-1116): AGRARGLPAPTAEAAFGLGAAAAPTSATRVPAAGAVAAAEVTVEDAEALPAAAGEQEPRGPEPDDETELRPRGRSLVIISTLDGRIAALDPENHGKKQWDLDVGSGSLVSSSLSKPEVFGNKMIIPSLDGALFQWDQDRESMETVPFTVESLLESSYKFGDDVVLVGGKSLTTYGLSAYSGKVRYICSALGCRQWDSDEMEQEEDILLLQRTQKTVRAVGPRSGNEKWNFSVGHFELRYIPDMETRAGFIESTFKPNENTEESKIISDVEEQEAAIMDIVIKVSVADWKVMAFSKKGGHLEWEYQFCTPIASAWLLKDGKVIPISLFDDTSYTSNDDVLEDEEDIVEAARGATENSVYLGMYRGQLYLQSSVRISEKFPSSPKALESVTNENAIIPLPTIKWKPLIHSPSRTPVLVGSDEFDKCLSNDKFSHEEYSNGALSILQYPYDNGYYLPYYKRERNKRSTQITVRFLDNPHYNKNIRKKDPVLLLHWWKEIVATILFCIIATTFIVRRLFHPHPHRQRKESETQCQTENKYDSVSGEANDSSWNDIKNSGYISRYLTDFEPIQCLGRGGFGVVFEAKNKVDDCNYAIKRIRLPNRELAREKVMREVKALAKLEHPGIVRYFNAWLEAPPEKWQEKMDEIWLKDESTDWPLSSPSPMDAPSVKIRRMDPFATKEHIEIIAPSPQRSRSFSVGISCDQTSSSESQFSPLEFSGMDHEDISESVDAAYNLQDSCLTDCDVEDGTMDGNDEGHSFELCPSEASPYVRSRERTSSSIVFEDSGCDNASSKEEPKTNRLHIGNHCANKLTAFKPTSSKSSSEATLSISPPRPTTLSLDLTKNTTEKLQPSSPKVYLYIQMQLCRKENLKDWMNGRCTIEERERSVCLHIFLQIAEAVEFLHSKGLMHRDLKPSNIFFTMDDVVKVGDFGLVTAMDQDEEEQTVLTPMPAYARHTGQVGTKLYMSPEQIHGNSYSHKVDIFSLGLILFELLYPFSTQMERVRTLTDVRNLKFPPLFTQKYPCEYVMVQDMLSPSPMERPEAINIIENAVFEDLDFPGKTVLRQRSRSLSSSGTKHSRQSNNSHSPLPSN
# Experiment: PERK enzyme assay (HTRF)
# Assay type: biochemical
# Conditions: 500 μM ATP; at least one experimental run; read-out: PERK Enzyme (500 μM ATP) IC50
# Procedure, shortened: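 HTRF read-out after 2 h of EDTA-quenched reactions, detecting phospho-eIF2α with Eu/APC reagents, gave IC50 values. Reaction: 0.75 nM GST-PERK, 30–60 min compound pre-incubation (max 1% DMSO), then 60 min with 40 nM biotin-eIF2α and 500 μM ATP, HEPES pH 7.5 buffer.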
row,SMILES,IC50 [nM]
1,"CN1C(=O)N(c2ccc(-c3cn(C)c4ncnc(N)c34)c(F)c2)CC1c1cc(F)cc(F)c1 (stereo not shown) [Example 25, 1-(4-(4-amino-7-methyl-7H-pyrrolo[2,3-d]pyrimidin-5-yl)-3-fluorophenyl)-4-(3,5-difluorophenyl)-3-methylimidazolidin-2-one]",74.2

# Same assay, conditions: PERK Enzyme (500 μM ATP) IC50; at least one experimental run; read-out: PERK Activity
row,SMILES,IC50 [nM]
1,"CN1C(=O)N(c2ccc(-c3cn(C)c4ncnc(N)c34)c(F)c2)CC1c1cc(F)cc(F)c1 (stereo not shown) [Example 25, 1-(4-(4-amino-7-methyl-7H-pyrrolo[2,3-d]pyrimidin-5-yl)-3-fluorophenyl)-4-(3,5-difluorophenyl)-3-methylimidazolidin-2-one]",< 100
2,"Cc1nc(N)c2c(-c3ccc(N4CC(c5ccc(F)cc5F)N(C)C4=O)cc3F)c(C)n(C)c2n1 (single isomer, unassigned) [Example 11, 1-(4-(4-amino-2,6,7-trimethyl-7H-pyrrolo[2,3-d]pyrimidin-5-yl)-3-fluorophenyl)-4-(2,4-difluorophenyl)-3-methylimidazolidin-2-one]",< 100
3,"Cc1cc(N2CC(c3cc(F)cc(F)c3)CC2=O)ccc1-c1cn(C)c2ncnc(N)c12 (stereo not shown) [Example 5, 1-(4-(4-Amino-7-methyl-7H-pyrrolo[2,3-d]pyrimidin-5-yl)-3-methylphenyl)-4-(3,5-difluorophenyl)pyrrolidin-2-one]",100 to 1000
4,"CN1C(=O)N(c2ccc(-c3cn(C4CC4)c4ncnc(N)c34)c(F)c2)CC1c1ccc(Cl)cc1 (single isomer, unassigned) [Example 168, 1-(4-(4-amino-7-cyclopropyl-7H-pyrrolo[2,3-d]pyrimidin-5-yl)-3-fluorophenyl)-4-(4-chlorophenyl)-3-methylimidazolidin-2-one]",< 100
5,"CCN1C(=O)N(c2ccc(-c3cn(C)c4ncnc(N)c34)c(F)c2)CC1c1cc(C2CC2)ccc1F (stereo not shown) [Example 48, 1-(4-(4-amino-7-methyl-7H-pyrrolo[2,3-d]pyrimidin-5-yl)-3-fluorophenyl)-4-(5-cyclopropyl-2-fluorophenyl)-3-ethylimidazolidin-2-one]",100 to 1000
6,"CN1C(=O)N(c2ccc(-c3cn(C4CC4)c4ncnc(N)c34)c(F)c2)CC1c1cc(F)c(F)cc1F (single isomer, unassigned) [Example 161, 1-(4-(4-amino-7-cyclopropyl-7H-pyrrolo[2,3-d]pyrimidin-5-yl)-3-fluorophenyl)-3-methyl-4-(2,4,5-trifluorophenyl)imidazolidin-2-one]",< 100
7,"CN1C(=O)N(c2ccc(-c3cn(C4CC4)c4ncnc(N)c34)c(Cl)c2)CC1c1cc(F)cc(F)c1 (single isomer, unassigned) [Example 130, 1-(4-(4-amino-7-cyclopropyl-7H-pyrrolo[2,3-d]pyrimidin-5-yl)-3-chlorophenyl)-4-(3,5-difluorophenyl)-3-methylimidazolidin-2-one]",< 100
8,"Cc1nc(N)c2c(-c3ccc(N4CC(c5ccc(Cl)nc5)N(C)C4=O)cc3F)cn(C)c2n1 (stereo not shown) [Example 135, 1-(4-(4-amino-2,7-dimethyl-7H-pyrrolo[2,3-d]pyrimidin-5-yl)-3-fluorophenyl)-4-(6-chloropyridin-3-yl)-3-methylimidazolidin-2-one]",< 100

# Test system: prion infected mice
# Experiment: not given
# Conditions: cited from earlier work
row,SMILES,neuroprotective effect and clinical signs of disease
1,"Cn1cc(-c2ccc3c(c2)CCN3C(=O)Cc2cccc(C(F)(F)F)c2)c2c(N)ncnc21 [GSK2606414, 7-methyl-5-(1-{[3-(trifluoromethyl)phenyl]acetyl}-2,3-dihydro-1H-indol-5-yl)-7H-pyrrolo[2,3-d]pyrimidin-4-amine]",provide a neuroprotective effect and prevent clinical signs of disease

# — patent US20180237441A1, “Chemical Compounds” (GlaxoSmithKline Intellectual Property (No.2) Limited, priority 2015, published 2018)
